From US20220041582A1, “ISOXAZOLINE COMPOUNDS FOR CONTROLLING INVERTEBRATE PESTS” (FMC Corporation, priority 2018, published 2022)
Like-named read-outs stand apart in the source and are kept apart here.

Key:
Format in all cases: in vivo
[1] = test system: Western Flower Thrips (Frankliniellla occidentalis (Pergande)); experiment: Test H: control of Western Flower Thrips through contact and/or systemic means; conditions: 50 ppm spray; 6 days; 30% or less plant damage and/or 100% mortality
Experimental: (§1) Formulation and Spray Methodology for Tests A-H
(§2) Test compounds were formulated using a solution containing 10% acetone, 90% water and 300 ppm Activator 90® non-ionic surfactant (Loveland Products, Loveland, Colo., USA). The formulated compounds were applied in 1 mL of liquid through an atomizer nozzle positioned 1.27 cm (0.5 inches) above the top of each test unit. Test compounds were sprayed at the rates indicated, and each test was replicated three times.
For evaluating control of the Western Flower Thrips (Frankliniellla occidentalis (Pergande)) through contact and/or systemic means, the test unit consisted of a small open container with a 8-9-day-old Soleil bean plant inside.
Test compounds were formulated and sprayed at 250, 50, 10 and 2 ppm. After spraying, the test units were allowed to dry for 1 hour, and then ˜60 thrips (adults and nymphs) were added to each unit. A black, screened cap was placed on top, and the test units were held for 6 days at 25° C. and 45-55% relative humidity. Each test unit was then visually assessed for plant damage and insect mortality.

[2] = test system: sweetpotato whitefly (Bemisia tabaci (Gennadius)); experiment: Test G: control of sweetpotato whitefly through contact and/or systemic means; conditions: 312 h
Experimental: as §1, §2
For evaluating control of the sweetpotato whitefly (Bemisia tabaci (Gennadius)) through contact and/or systemic means, the test unit consisted of a small open container with a 12-14-day-old cotton plant inside. Prior to the spray application, both cotyledons were removed from the plant, leaving one true leaf for the assay. Adult whiteflies were allowed to lay eggs on the plant and then were removed from the test unit. Cotton plants infested with at least 15 eggs were submitted to the test for spraying.
Test compounds were formulated and sprayed at 250, 50 and 10 ppm. After spraying, the test units were allowed to dry for 1 hour. The cylinders were then removed, and the units were taken to a growth chamber and held for 13 days at 28° C. and 50-70% relative humidity. Each test unit was then visually assessed for insect mortality.

[3] = test system: green peach aphid (Myzus persicae (Sulzer)); experiment: Test E: control of green peach aphid through contact and/or systemic means; conditions: 144 h
Experimental: as §1, §2
For evaluating control of green peach aphid (Myzus persicae (Sulzer)) through contact and/or systemic means, the test unit consisted of a small open container with a 12-15-day-old radish plant inside. This was pre-infested by placing on a leaf of the test plant 30-40 aphids on a piece of leaf excised from a culture plant (cut-leaf method). The aphids moved onto the test plant as the leaf piece desiccated. After pre-infestation, the soil of the test unit was covered with a layer of sand.
Test compounds were formulated and sprayed at 250, 50 and 10 ppm. After spraying of the formulated test compound, each test unit was allowed to dry for 1 hour and then a black, screened cap was placed on top. The test units were held for 6 days in a growth chamber at 19-21° C. and 50-70% relative humidity. Each test unit was then visually assessed for insect mortality.

[4] = test system: cotton melon aphid (Aphis gossypii (Glover)); experiment: Test F: control of cotton melon aphid through contact and/or systemic means; conditions: 144 h
Experimental: as §1, §2
[…] This was pre-infested with 30-40 insects on a piece of leaf according to the cut-leaf method, and the soil of the test unit was covered with a layer of sand.
Test compounds were formulated and sprayed at 250, 50 and 10 ppm. After spraying, the test units were maintained in a growth chamber for 6 days at 19° C. and 70% relative humidity. Each test unit was then visually assessed for insect mortality.

[5] = test system: corn planthopper (Peregrinus maidis (Ashmead)); experiment: Test C: control of corn planthopper through contact and/or systemic means; conditions: for mortality at 50 ppm: Peregrinus maidis, 144 h
Experimental: as §1, §2
For evaluating control of corn planthopper (Peregrinus maidis (Ashmead)) through contact and/or systemic means, the test unit consisted of a small open container with a 3-4-day-old corn (maize) plant inside. White sand was added to the top of the soil prior to application of the test compound.
Test compounds were formulated and sprayed at 50 and 10 ppm. After spraying of the formulated test compound, the test units were allowed to dry for 1 h before they were post-infested with ˜15-20 nymphs (18-to-21-day-old). A black, screened cap was placed on the top of each test unit, and the test units were held for 6 days in a growth chamber at 22-24° C. and 50-70% relative humidity. Each test unit was then visually assessed for insect mortality.

[6] = test system: potato leafhopper (Empoasca fabae (Harris)); experiment: Test D: control of potato leafhopper through contact and/or systemic means; conditions: 144 h
Experimental: as §1, §2
[…] White sand was added to the top of the soil, and one of the primary leaves was excised prior to application of the test compound.
Test compounds were formulated and sprayed at 250, 50 and 10 ppm. After spraying of the formulated test compound, the test units were allowed to dry for 1 hour before they were post-infested with 5 potato leafhoppers (18-to-21-day-old adults). A black, screened cap was placed on the top of the test unit, and the test units were held for 6 days in a growth chamber at 20° C. and 70% relative humidity. Each test unit was then visually assessed for insect mortality.

[7] = 50 ppm spray, 6 days, read-out: mortality
[8] = 10 ppm spray, 6 days, read-out: mortality
[9] = 50 ppm spray, 13 days, read-out: mortality

Structure (SMILES)	mortality at 50 ppm [2]	mortality at 50 ppm [4]	mortality at 50 ppm [5]	mortality at 50 ppm [3]	mortality at 50 ppm [6]	mortality at 10 ppm [4]	mortality at 50 ppm [5, 7]	mortality at 50 ppm [3, 7]	mortality at 50 ppm [4, 7]	other results
CCN1OC[C@@H](NC(=O)c2ccc(C3=NOC(c4cc(Cl)cc(Cl)c4)(C(F)(F)F)C3)c3ccncc23)C1=O (some centres unmarked) [Compound 1]	≥ 50%	≥ 80%								control efficacy: plant damage (and/or 100% mortality) [1]: ≤ 30%; mortality at 250 ppm [2]: ≥ 50%; mortality at 250 ppm [3]: ≥ 80%; mortality at 250 ppm [4]: ≥ 80%
O=C(NCc1ncccn1)c1ccc(C2=NOC(c3cc(Cl)c(F)c(Cl)c3)(C(F)(F)F)C2)c2ccncc12 (centres unmarked) [Compound 4, 5-[5-(3,5-dichloro-4-fluorophenyl)-4,5-dihydro-5-(trifluoromethyl)-3-isoxazolyl]-N-(2-pyrimidinylmethyl)-8-isoquinolinecarboxamide]	≥ 50%	≥ 80%	≥ 80%	≥ 80%	≥ 80%	≥ 80%				mortality at 10 ppm [2]: ≥ 50%
COC(=O)[C@@H](C)NC(=O)c1ccc(C2=NOC(c3cc(Cl)c(F)c(Cl)c3)(C(F)(F)F)C2)c2ccncc12 (some centres unmarked) [Compound 6]	≥ 50%	≥ 80%	≥ 80%	≥ 80%	≥ 80%	≥ 80%				mortality at 10 ppm [3]: ≥ 80%
O=C(NCc1ncccn1)c1ccc(C2=NOC(c3cccc(C(F)(F)F)c3)(C(F)(F)F)C2)c2ccncc12 (centres unmarked) [Compound 18]							≥ 80%	≥ 80%	≥ 80%	mortality at 10 ppm [3, 8]: ≥ 80%
CSCCNC(=O)c1ccc(C2=NOC(c3cccc(C(F)(F)F)c3)(C(F)(F)F)C2)c2ccncc12 (centres unmarked) [Compound 29]							≥ 80%	≥ 80%	≥ 80%	
O=C(NC1CC1)c1ccc(C2=NOC(c3cc(Cl)cc(C(F)(F)F)c3)(C(F)(F)F)C2)c2ccncc12 (centres unmarked) [Compound 35, 5-[5-[3-chloro-5-(trifluoromethyl)phenyl]-4,5-dihydro-5-(trifluoromethyl)-3-isoxazolyl]-N-cyclopropyl-8-isoquinolinecarboxamide]	≥ 50%	≥ 80%	≥ 80%	≥ 80%	≥ 80%	≥ 80%				mortality at 10 ppm [2]: ≥ 50%; mortality at 10 ppm [3]: ≥ 80%; mortality at 10 ppm [6]: ≥ 80%
O=C(NCC1CC1)c1ccc(C2=NOC(c3cc(Cl)cc(C(F)(F)F)c3)(C(F)(F)F)C2)c2ccncc12 (centres unmarked) [Compound 36, 5-[5-[3-chloro-5-(trifluoromethyl)phenyl]-4,5-dihydro-5-(trifluoromethyl)-3-isoxazolyl]-N-(cyclopropylmethyl)-8-isoquinolinecarboxamide]	≥ 50%	≥ 80%		≥ 80%	≥ 80%	≥ 80%				mortality at 10 ppm [2]: ≥ 50%; mortality at 10 ppm [3]: ≥ 80%; mortality at 10 ppm [6]: ≥ 80%
C#CCNC(=O)c1ccc(C2=NOC(c3cc(Cl)c(F)c(Cl)c3)(C(F)(F)F)C2)c2ccncc12 (centres unmarked) [Compound 48, 5-[5-(3,5-dichloro-4-fluorophenyl)-4,5-dihydro-5-(trifluoromethyl)-3-isoxazolyl]-N-2-propyn-1-yl-8-isoquinolinecarboxamide]		≥ 80%	≥ 80%	≥ 80%	≥ 80%					
O=C(NC1CC1)c1ccc(C2=NOC(c3ccc(F)c(C(F)(F)F)c3)(C(F)(F)F)C2)c2ccncc12 (centres unmarked) [Compound 55, N-cyclopropyl-5-[5-[4-fluoro-3-(trifluoromethyl)phenyl]-4,5-dihydro-5-(trifluoromethyl)-3-isoxazolyl]-8-isoquinolinecarboxamide]							≥ 80%	≥ 80%	≥ 80%	mortality at 10 ppm ([2]; 10 ppm spray, 13 days, read-out: mortality): ≥ 50%; mortality at 50 ppm [2, 9]: ≥ 50%; mortality at 50 ppm [6, 7]: ≥ 80%; mortality at 10 ppm [4, 8]: ≥ 80%
O=C(NCC1CC1)c1ccc(C2=NOC(c3ccc(F)c(C(F)(F)F)c3)(C(F)(F)F)C2)c2ccncc12 (centres unmarked) [Compound 58, N-(cyclopropylmethyl)-5-[5-[4-fluoro-3-(trifluoromethyl)phenyl]-4,5-dihydro-5-(trifluoromethyl)-3-isoxazolyl]-8-isoquinolinecarboxamide]							≥ 80%	≥ 80%	≥ 80%	mortality at 50 ppm [2, 9]: ≥ 50%; mortality at 10 ppm [3, 8]: ≥ 80%; mortality at 50 ppm [6, 7]: ≥ 80%; mortality at 10 ppm [4, 8]: ≥ 80%
C#CCNC(=O)c1ccc(C2=NOC(c3ccc(F)c(C(F)(F)F)c3)(C(F)(F)F)C2)c2ccncc12 (centres unmarked) [Compound 74, 5-[5-[4-fluoro-3-(trifluoromethyl)phenyl]-4,5-dihydro-5-(trifluoromethyl)-3-isoxazolyl]-N-2-propyn-1-yl-8-isoquinolinecarboxamide]							≥ 80%	≥ 80%	≥ 80%	mortality at 50 ppm [2, 9]: ≥ 50%; mortality at 50 ppm [6, 7]: ≥ 80%
O=C(NCc1ncccn1)c1ccc(C2=NOC(c3ccc(F)c(C(F)(F)F)c3)(C(F)(F)F)C2)c2ccncc12 (centres unmarked) [Compound 76]										mortality ([5]; 10 ppm spray, 6 days): at least 80%
